# Experimental data as given in patent US20240368209A1, “GEMCITABINE ANTICANCER DERIVATIVE AND ANTICANCER PHARMACEUTICAL USE” (ASCENTAWITS PHARMACEUTICALS, LTD., priority 2021, published 2024).
# Read-outs that look alike come from different tables or passages of the source.
# What was measured:
# [1] = system: H460 non-small cell lung cancer human tumor cell line; assay: In vitro human tumor cell line cytotoxicity (proliferation) assay on H460, CTG, with or without AST-3021; assay type: cell-based; details: for IC50: Homo sapiens
# Method: In vitro human tumor cell line cytotoxicity assay was used.
# In vitro proliferation data on the H460 non-small cell lung cancer human tumor cell line (cell line which highly expresses AKR1C3) is reported below in the compound table.
# IC50 values were obtained with the following steps:
# Specifically, exponentially growing cells were seeded at a density of 2×10^3 cells/100 μL/well in a 96-well plate and incubated at 37° C. in 5% CO2, 95% air and 100% relative humidity for 24 hours. The test compound was administered alone: 24 hours after cell plating, the compound acted alone, 99 μL of growth medium per well was added, and 1 μL of the compound prepared at 200× was added, and the plate was shaken gently to ensure even mixing, then placed into an incubator of 37° C., 5% CO2. After further cultivation for 72 hours, the number of live cells was detected using CTG. The CTG detection method was as follows: the cell plate to be tested was placed at room temperature to equilibrate for 30 minutes, and 100 μL of medium per well was discarded. 25 μL of CTG reagent (CellTiter-Glo® kit) per well was added, and the plate was placed in a high-speed shaker to oscillate for 2 minutes, and placed at room temperature in the dark for 30 minutes. The chemiluminescence signal value was read using a multimode microplate reader, with a read time of 1000 ms.
# Similarly, in order to further verify that the compounds were activated by human AKR1C3 (aldosterone reductase family 1 member C3), the effect of some of the compounds on the proliferation of H460 cancer cells was tested with pretreatment with a specific AKR1C3 enzyme inhibitor AST-3021 (3 μM). The detailed experimental procedure was as follows: 24 hours after cell plating, 98 μL of growth medium per well was added, and 1 μL of 200×compound AST-3021 was added to each well, and the plate was shaken gently to ensure even mixing, and then placed into an incubator; after 2 hours, 1 μL of the test compound prepared at 200× was added, and the plate was shaken gently to ensure even mixing and then laced into an incubator of 37° C., 5% CO2. The inhibitor used was compound 36, i.e.
# in Flanagan et al., Bioorganic and Medicinal Chemistry (2014), page 962-977, and is referred to as AST-3021 in this invention. The values measured in this case are values corresponding to +AST-3021 IC50 (nM) in Table 1.
# The value corresponding to +AST-3021 IC50 (nM) divided by the value corresponding to IC50 (nM) is the specific activation ratio. The relative magnitude of the specific activation ratio can be used to evaluate whether this compound is a cytotoxic compound activated by human AKR1C3 (aldosterone reductase family 1 member C3): when the specific activation ratio is less than 1, it is considered that the compound is not activated by human AKR1C3 (aldosterone reductase family 1 member C3); when the specific activation ratio is greater than 1, it is considered that the compound is activated by human AKR1C3 (aldosterone reductase family 1 member C3), and the higher the value, the higher the activation degree and the selectivity of AKR1C3.
# [2] = Metabolic stability in human liver microsomes; assay type: in vitro ADME
# Method: (§1) Main solutions were prepared according to Table 9 below:
# (§2) (II) Two Separate Experiments were Performed • a) With cofactor (NADPH): 25 μL of 10 mM NADPH was added to the culture broth. The final concentration of liver microsomes was 0.5 mg/mL, and the final concentration of NADPH was 1 mM. • b) Without cofactor (NADPH): 25 μL of 100 mM phosphate buffer was added. The final concentration of liver microsomes was 0.5 mg/mL. The mixture was preheated at 37° C. for 10 minutes. (III) 25 μL of […] control compound or test compound solution was added to start the reaction. […] The final concentrations of the test compound and control compound were both 1 μM. The culture broth was cultured in water at 37° C. (IV) Aliquots of 30 μL were collected from the reaction solution at 0.5, 5, 15, 30, and 60 minutes, respectively. 5 volumes of cold acetonitrile and IS (internal standard, containing 100 nM of alprazolam, 200 nM of caffeine, and 100 nM of tolylbutanamide) were added to stop the reaction. […] 100 μL of supernatant was taken and mixed with 100 μL of ultrapure water, equally divided and analyzed with LC-MS/MS.
# (§3) All calculations were conducted using Microsoft Excel. The peak area was determined from the extracted ion chromatogram.
# (§4) [formula] [formula] [formula] • wherein, QH is the hepatic blood flow (mL/min/kg) in Table 10, and fub is the fraction of drug unbound in plasma, and assumed as 1.
# [3] = Metabolic stability in dog liver microsomes; assay type: in vitro ADME
# Method: as §1, §2, §3, §4
# [4] = Plasma stability in dog plasma; assay type: in vitro ADME
# Method: The final concentration of organic solvents was 0.5%. The test was conducted in duplicate. • C.
# Samples were analyzed with LC-MS/MS. All calculations were conducted using Microsoft Excel.
# [5] = Maximal tolerance dose (MTD) test; assay type: in vivo; details: mice
# Method: According to the research scheme in Table 14, mice were grouped and administered at the concentrations and dosage levels shown in Table 14. On the 1st to 5th day and the 14th to 19th day, intraperitoneal injection of a solvent control or compound H11 at different dosage levels was performed, with a dose volume of 10 mL/kg. Animals in Groups 1, 3, and 4 were put to death and autopsied on the 22nd day, and animals in Group 2 were put to death and autopsied on the 16th day.
# The evaluated parameters included cage-side observation, detailed clinical observation, and post-administration observation (approximately 1-2 hours after dosing), body weight and weight change, food intake, and gross pathology.
structure (smiles),measurement,setting,value
CC(C)NP(=O)(OCc1ccc([N+](=O)[O-])c(Oc2ccc(-c3ccc(F)cc3)c(F)c2)c1)OCC1OC(C2N=CC(N)=NC2=O)C(F)(F)C1O (stereo not drawn) [Compound H11],specific activation ratio (+AST-3021 IC50/IC50),[1],92.8
same,IC50,"[1]; NCI-H460, compound alone, 72 hours, read-out: IC50",15.9 nM
same,IC50,"[1]; NCI-H460, pretreatment with AKR1C3 inhibitor AST-3021 (3 μM), read-out: +AST-3021 IC50",1480 nM
same,Hepatic Extraction Ratio (ER),[2],0.69
same,Predicted Hepatic CLH,[2],14.41 mL/min/kg
same,clearance and stability in liver microsomes (in words),[2],medium clearances and certain stability
same,Remaining percentage (%),"[2]; NADPH added, 0.5 minutes, 1 μM",100.00%
same,Remaining percentage (%),"[2]; NADPH added, 5 minutes",86.00%
same,Remaining percentage (%),"[2]; NADPH added, 15 minutes",63.82%
same,Remaining percentage (%),"[2]; NADPH added, 30 minutes",43.87%
same,Remaining percentage (%),"[2]; NADPH added, 60 minutes",26.14%
same,Remaining percentage (%),"[2]; NADPH not added, 0.5 minutes",100.00%
same,Remaining percentage (%),"[2]; NADPH not added, 60 minutes",100.86%
same,half-life at 1 μM,[2]; read-out: In vitro half-life t1/2,31 min
same,microsomal CLint at 1 μM,[2]; read-out: In vitro intrinsic clearance CLint,44.7 µL/min/mg
same,CLint scaled at 1 μM,[2]; read-out: Scale-up CLint,46 mL/min/kg
same,Hepatic Extraction Ratio (ER),[3],0.68
same,Predicted Hepatic CLH,[3],21.21 mL/min/kg
same,clearance and stability in liver microsomes (in words),[3],medium clearances and certain stability
same,Remaining percentage (%),"[3]; NADPH added, 0.5 minutes, 1 μM",100.00%
same,Remaining percentage (%),"[3]; NADPH added, 5 minutes",90.20%
same,Remaining percentage (%),"[3]; NADPH added, 15 minutes",71.99%
same,Remaining percentage (%),"[3]; NADPH added, 30 minutes",52.53%
same,Remaining percentage (%),"[3]; NADPH added, 60 minutes",32.12%
same,Remaining percentage (%),"[3]; NADPH not added, 0.5 minutes",100.00%
same,Remaining percentage (%),"[3]; NADPH not added, 60 minutes",92.14%
same,half-life at 1 μM,"[3]; dog, read-out: In vitro half-life t1/2",36.3 min
same,microsomal CLint at 1 μM,"[3]; dog, read-out: In vitro intrinsic clearance CLint",38.2 µL/min/mg
same,CLint scaled at 1 μM,[3]; read-out: Scale-up CLint,67.2 mL/min/kg
same,t1/2 (min),[4],∞
same,Remaining percentage (%),"[4]; 0 min, 5 μM, 37° C.",100.00%
same,plasma stability (in words),"[4]; 37° C., at least 2 hours",stable and has no significant metabolism
same,Remaining percentage (%),[4]; 15 min,104.14%
same,Remaining percentage (%),[4]; 30 min,103.37%
same,Remaining percentage (%),[4]; 60 min,102.42%
same,Remaining percentage (%),[4]; 120 min,103.04%
same,Clinical symptoms,"[5]; 80, 160, 320 mg/kg/day i.p.",No abnormal compound-related clinical manifestation was observed
same,Impact on animal weight and food intake,"[5]; 80, 160, 320 mg/kg/day i.p.",No abnormal compound-related change in body weight or food intake was observed
same,Mortality of animals,"[5]; 80, 160, 320 mg/kg/day i.p., two rounds of 5 days",all experimental animals survived until the planned autopsy
same,dose at which enlargement of the spleen was visible (pathological examination),[5]; i.p.,≥ 160 mg/kg
same,dose group with change to white in the renal capsule (pathological examination),[5]; i.p.,320 mg/kg
same,maximal tolerance dose,[5]; intraperitoneal injection once a day for 5 consecutive days,320 mg/kg
